Laboratory results taken from publication PMC10536189 (Microorganisms, 2023).
Where two headings read alike, the source gives them in different places. Where no end group is shown, it is not given here.

What was measured:
[1] = test system: M. tuberculosis; format: cell-based, Mycobacterium tuberculosis (laboratory strain H37Rv); conditions: for Time to Positivity (Days.Hours) Experiment 2a / Time to Positivity (Days.Hours) Experiment 2b: diluted inoculum; for Time to Positivity (Days.Hours) Experiment 2a: technical repeat 2a, TB control (no peptide) 15.01; for Time to Positivity (Days.Hours) Experiment 2b: technical repeat 2b, TB control (no peptide) 15.20; for Time to Positivity (Days.Hours) Experiment 1a / Time to Positivity (Days.Hours) Experiment 1b: less diluted inoculum; for Time to Positivity (Days.Hours) Experiment 1a: technical repeat 1a, TB control (no peptide) 7.02; for Time to Positivity (Days.Hours) Experiment 1b: technical repeat 1b, TB control (no peptide) 7.01; for Average % Faster than Control: negative = slower
[2] = test system: Mycobacterium avium subsp. paratuberculosis (MAP); format: cell-based; conditions: for Effect on growth of MAP compared to control: peptide 20 µg/mL, 37 °C
[3] = test system: Mycobacterium tuberculosis (MTB); format: cell-based, Mycobacterium tuberculosis (laboratory strain H37Rv)
[4] = test system: Mycobacterium marinum; format: cell-based, Mycobacterium marinum NCTC 2275; conditions: Peptide 14 at 20 µg/mL, 30 °C
[5] = test system: M. bovis; format: cell-based
[6] = test system: Mycobacterium avium-intracellulare; format: cell-based, Mycobacterium intracellulare serotype 7 NCTC10682; conditions: Peptide 14 at 20 µg/mL
[7] = test system: Mycobacterium abscessus; format: cell-based, Mycobacterium abscessus (clinical human isolate); conditions: Peptide 14 at 20 µg/mL
[8] = test system: Mycobacterium celatum; format: cell-based, Mycobacterium celatum (clinical isolate); conditions: Peptide 14 at 20 µg/mL
[9] = peptide 10 µg/mL, overall average of the averages of experiments 1a/1b and 2a/2b
[10] = crude peptide 10 µg/mL, average of experiments 1 and 2

| Substance | Time to Positivity (Day.Hours) Experiment 1 [1] [Day.Hours] | Time to Positivity (Day.Hours) Experiment 2 [1] [Day.Hours] | Average % Faster than Control [1, 10] [%] | further results |
| --- | --- | --- | --- | --- |
| LLGDFFRKSKEKIGKEFKRIVQRIKDFLRNLVPRTES [Peptide 78, reference compound] |  |  |  | Effect on TTP of MTB in words ([1]; peptide 10 µg/mL, MGIT): lower TTP; Time to Positivity (Days.Hours) Experiment 2a ([1]; peptide 10 µg/mL, MGIT): 14.15 Days.Hours; Time to Positivity (Days.Hours) Experiment 2b ([1]; peptide 10 µg/mL, MGIT): 15.00 Days.Hours; Time to Positivity (Days.Hours) Experiment 1a ([1]; peptide 10 µg/mL, MGIT): 6.08 Days.Hours; Time to Positivity (Days.Hours) Experiment 1b ([1]; peptide 10 µg/mL, MGIT): 6.09 Days.Hours; Average % Faster than Control [1, 9]: 5.8% |
| LSFLPKVIGVIGHLIH [Fallaxidin/Frog *] | 11.18 | 8.13 | 3.2 |  |
| LVPLFLSKLICFITKKC [Brevinin 1Tb/Frog] | 11.10 | 8.15 | 4.2 |  |
| OdVP2/Wasp: naturally occurring peptide, APD3, wasp (ILGIITSLLKSLGKK) | 10.22 | 8.11 | 7.3 |  |
| Pd_mastoparan PDD-B/Wasp: naturally occurring peptide, APD3, wasp (INWLKLGKKILGAL) | 11.06 | 8.09 | 6.3 |  |
| RGGRLCYCRRRFCVCV [Protegrin 1/Pig *] | 10.23 | 6.22 | 15.3 |  |
| RLARIVVIRVRR-CONH2 (RLARIVVIRVRR-NH2) [Peptide 70] |  |  |  | Time to Positivity (Days.Hours) Experiment 2a ([1]; peptide 10 µg/mL, MGIT): 14.22 Days.Hours; Time to Positivity (Days.Hours) Experiment 2b ([1]; peptide 10 µg/mL, MGIT): 15.06 Days.Hours; Time to Positivity (Days.Hours) Experiment 1a ([1]; peptide 10 µg/mL, MGIT): 6.03 Days.Hours; Time to Positivity (Days.Hours) Experiment 1b ([1]; peptide 10 µg/mL, MGIT): 6.19 Days.Hours; Average % Faster than Control [1, 9]: 4.2%; Effect on growth of MAP compared to control [2]: no discernible effect on the growth |
| RLARIVVIRWAR-CONH2 (RLARIVVIRWAR-NH2) [Peptide 72] |  |  |  | Time to Positivity (Days.Hours) Experiment 2a ([1]; peptide 10 µg/mL, MGIT): 15.01 Days.Hours; Time to Positivity (Days.Hours) Experiment 2b ([1]; peptide 10 µg/mL, MGIT): 15.13 Days.Hours; Time to Positivity (Days.Hours) Experiment 1a ([1]; peptide 10 µg/mL, MGIT): 6.22 Days.Hours; Time to Positivity (Days.Hours) Experiment 1b ([1]; peptide 10 µg/mL, MGIT): 7.01 Days.Hours; Average % Faster than Control [1, 9]: −0.2%; Effect on growth of MAP compared to control [2]: significant reduction in the growth |
| RRWRIVVIRVRR-CONH2 (RRWRIVVIRVRR-NH2) [Peptide 69] |  |  |  | Effect on TTP of MTB in words ([1]; peptide 10 µg/mL, MGIT): strong hormetic response; Time to Positivity (Days.Hours) Experiment 2a ([1]; peptide 10 µg/mL, MGIT): 13.12 Days.Hours; Time to Positivity (Days.Hours) Experiment 2b ([1]; peptide 10 µg/mL, MGIT): 13.02 Days.Hours; Time to Positivity (Days.Hours) Experiment 1a ([1]; peptide 10 µg/mL, MGIT): 6.02 Days.Hours; Time to Positivity (Days.Hours) Experiment 1b ([1]; peptide 10 µg/mL, MGIT): 6.02 Days.Hours; Average % Faster than Control [1, 9]: 12.8%; Effect on growth of MTB compared to control [3]: slight improvements |
| RWCFRVCYRGICYRKCR [Tachyplasin II/Crab] | 10.18 | 8.06 | 9.1 |  |
| RWCVYAYVRVRGVLVR [Arenicin 1/Annelid worm *] | 10.15 | 8.02 | 10.5 |  |
| SAPRGCWTKSYPPKPCK [Ranacyclin E/Frog] | 10.07 | 8.01 | 12.2 |  |
| SLLSLIRKLIT [Decoralin/Wasp] | 11.12 | 8.04 | 6.3 |  |
| VFHLLGKIIHHVGNFV [Clavanin C/Sea squirt, naturally occurring peptide, APD3, sea squirt] |  |  | 7.2 | Time to Positivity (Day.Hours) Experiment 1 ([1]; crude peptide 10 µg/mL, MGIT, independent experiment 1, Control (TB only) 11.10, inoculum emulsified through G25 needle): 10.21 Day.Hours; Time to Positivity (Day.Hours) Experiment 2 ([1]; crude peptide 10 µg/mL, MGIT, independent experiment 2, Control (TB only) 9.10, inoculum emulsified through G25 needle): 8.12 Day.Hours |
| VNWKKILGKIIKVVK [Lasioglossin LL-III/Bee] | 9.18 | 8.08 | 13.1 |  |
| VRRFPWWWPFLRR [Tritrpticin/Pig] | 11.08 | 9.13 | −0.3 |  |
| WCFRVCYKGFCYRKCR [Polyphemusin/Crab *] | 11.05 | 8.13 | 5.6 |  |
| WGKLFKLGLHGIGLLH [NRC-15/Fish *] | 10.21 | 8.07 | 8.3 |  |
| WKIVFWWRR-NH2 [Peptide 14] |  |  |  | Effect on growth [4]: growth stimulating effect; Effect on growth [5]: growth stimulating effect; Effect on growth [6]: growth stimulating effect; Effect on TTP of MTB in words ([1]; peptide 10 µg/mL, MGIT): strong hormetic response; Time to Positivity (Days.Hours) Experiment 2a ([1]; peptide 10 µg/mL, MGIT): 13.23 Days.Hours; Time to Positivity (Days.Hours) Experiment 2b ([1]; peptide 10 µg/mL, MGIT): 14.01 Days.Hours; Time to Positivity (Days.Hours) Experiment 1a ([1]; peptide 10 µg/mL, MGIT): 6.01 Days.Hours; Time to Positivity (Days.Hours) Experiment 1b ([1]; peptide 10 µg/mL, MGIT): 6.12 Days.Hours; Average % Faster than Control [1, 9]: 9.1%; Dependence of growth-enhancing effect on starting inoculum [2]: lower inocula being more greatly affected; Effect on growth of MAP compared to control [2]: strongest effects; Effect on growth [7]: enhance the growth; Concentration at which growth inhibition of MTB is observed [3]: 50 µg/mL; Effect on growth of MTB compared to control [3]: slight improvements; Upper end of concentration range with hormetic response / growth stimulation in MTB [3]: 10 µg/mL; Effect on growth [8]: growth stimulating effect |
| YAYVRIRGVLVRYRRC [Arenicin-2/Lugworm] | 11.13 | 8.03 | 6.3 |  |
| YQEPVLGPVRGPFPIIV [Casecidin 17/Cow] | 11.12 | 8.14 | 4.1 |  |
| rrwrivvirvrr-CONH2 [Peptide 69D] |  |  |  | Effect on growth of MAP (growth-enhancing activity) of protease-stabilised peptides ([2]; peptide 10 µg/mL, absorbance at 600 nm): growth-enhancing activity remained; Concentration at which growth inhibition of MTB is observed [3]: ≥ 10 µg/mL; Concentration with strong sustained growth stimulation of MTB [3]: 10 ng/mL |
